Assay results from paper PMC6469291, “2-Nitroimidazole-Furanoside Derivatives for Hypoxia Imaging—Investigation of Nucleoside Transporter Interaction, ^18F-Labeling and Preclinical PET Imaging” (Pharmaceuticals, 2019).
Read-outs that look alike come from different tables or passages of the source. Blank lines part the entries; values can stand above or below the molecule they belong to.

Legend:
hENT1 (SLC29A1) = target: T1, hENT1 (SLC29A1) (Homo sapiens, UniProt Q99808); assay: Inhibition of [^3H]uridine uptake in yeast cells producing recombinant hENT1; type: cell-based; settings: inhibition of 1 µmol/L [^3H]uridine transport, yeast, 0–3 mM test compound, mean ± SE, n = 2–3; NI = no interaction
T1 construct: expressed in transfected cells; host or cells: Saccharomyces cerevisiae
T1 sequence (Q99808 1-456): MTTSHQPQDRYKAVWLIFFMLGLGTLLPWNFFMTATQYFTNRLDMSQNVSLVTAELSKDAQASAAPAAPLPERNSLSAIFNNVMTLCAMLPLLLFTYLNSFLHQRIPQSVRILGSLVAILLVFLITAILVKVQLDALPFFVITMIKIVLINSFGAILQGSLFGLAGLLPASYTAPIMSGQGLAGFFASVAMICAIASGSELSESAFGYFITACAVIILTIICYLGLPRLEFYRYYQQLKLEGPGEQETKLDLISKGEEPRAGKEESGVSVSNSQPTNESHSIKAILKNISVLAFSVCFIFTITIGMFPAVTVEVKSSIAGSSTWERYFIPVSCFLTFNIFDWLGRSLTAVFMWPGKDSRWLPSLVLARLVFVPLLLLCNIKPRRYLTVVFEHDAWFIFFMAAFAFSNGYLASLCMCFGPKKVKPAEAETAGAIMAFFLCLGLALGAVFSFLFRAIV
Procedure: (§1) The interaction of 2-nitroimidazole sugars with nucleoside transporters was determined by ability of the 2-nitroimidazole sugars to inhibit [^3H]uridine uptake in yeast cells producing recombinant human nucleoside transporters and results expressed as IC50 values.
(§2) Saccharomyces cerevisiae yeast was separately transformed with plasmids (pYPhENT1, pYPhENT2, pYPhCNT1, pYPhCNT2, or pYPhCNT3) encoding hNTs (hENT1, hENT2, hCNT1, hCNT2, or hCNT3, respectively) as described elsewhere. Uptake of 1 µmol/L [^3H]uridine (Moravek Biochemicals) into yeast was measured as previously described using a semi-automated cell harvester (Micro96 HARVESTER; Skatron Instruments, Tranby, Norway). Yeast was incubated at room temperature with 1 µmol/L [^3H]uridine in yeast growth media (pH 7.4) in the presence or absence (uninhibited controls) of graded concentrations (0–3 mM) of test compounds. The following compounds were used for transporter experiments: FAZA, β-FAZA, α-FAZDR, β-FAZDR. Uridine self-inhibition was used to determine maximum inhibition of mediated transport. Concentration–effect curves were subjected to nonlinear regression analysis using Prism software (version 4.03; GraphPad Software Inc.) to obtain the concentration of test compound that inhibited uridine uptake by 50%, relative to that of untreated cells (IC50 values). Each IC50 value determination was conducted with nine concentrations and four replicates per concentration and experiments were repeated two to three times.

hENT2 (SLC29A2) = target: T2, hENT2 (SLC29A2) (Homo sapiens, UniProt Q14542); assay: Inhibition of [^3H]uridine uptake in yeast cells producing recombinant hENT2; type: cell-based; settings: inhibition of 1 µmol/L [^3H]uridine transport, yeast, 0–3 mM test compound, mean ± SE, n = 2–3; NI = no interaction
T2 construct: expressed in transfected cells; host or cells: Saccharomyces cerevisiae
T2 sequence (Q14542 1-456): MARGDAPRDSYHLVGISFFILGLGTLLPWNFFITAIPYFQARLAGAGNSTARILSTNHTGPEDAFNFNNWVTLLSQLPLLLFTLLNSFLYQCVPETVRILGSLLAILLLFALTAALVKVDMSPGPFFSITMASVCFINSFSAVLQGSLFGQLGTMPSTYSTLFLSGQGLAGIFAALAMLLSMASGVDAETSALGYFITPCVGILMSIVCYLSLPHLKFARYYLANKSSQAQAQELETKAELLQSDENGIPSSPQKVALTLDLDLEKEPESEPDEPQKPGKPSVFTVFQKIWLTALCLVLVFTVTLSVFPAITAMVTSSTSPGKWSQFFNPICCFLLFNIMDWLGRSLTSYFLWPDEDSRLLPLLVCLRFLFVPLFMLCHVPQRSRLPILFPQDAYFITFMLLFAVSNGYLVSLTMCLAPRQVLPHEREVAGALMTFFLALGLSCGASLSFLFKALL
Procedure: as §1, §2

hCNT1 (SLC28A1) = target: T3, hCNT1 (SLC28A1) (Homo sapiens, UniProt O00337); assay: Inhibition of [^3H]uridine uptake in yeast cells producing recombinant hCNT1; type: cell-based
T3 construct: expressed in transfected cells; host or cells: Saccharomyces cerevisiae
T3 sequence (O00337 1-649): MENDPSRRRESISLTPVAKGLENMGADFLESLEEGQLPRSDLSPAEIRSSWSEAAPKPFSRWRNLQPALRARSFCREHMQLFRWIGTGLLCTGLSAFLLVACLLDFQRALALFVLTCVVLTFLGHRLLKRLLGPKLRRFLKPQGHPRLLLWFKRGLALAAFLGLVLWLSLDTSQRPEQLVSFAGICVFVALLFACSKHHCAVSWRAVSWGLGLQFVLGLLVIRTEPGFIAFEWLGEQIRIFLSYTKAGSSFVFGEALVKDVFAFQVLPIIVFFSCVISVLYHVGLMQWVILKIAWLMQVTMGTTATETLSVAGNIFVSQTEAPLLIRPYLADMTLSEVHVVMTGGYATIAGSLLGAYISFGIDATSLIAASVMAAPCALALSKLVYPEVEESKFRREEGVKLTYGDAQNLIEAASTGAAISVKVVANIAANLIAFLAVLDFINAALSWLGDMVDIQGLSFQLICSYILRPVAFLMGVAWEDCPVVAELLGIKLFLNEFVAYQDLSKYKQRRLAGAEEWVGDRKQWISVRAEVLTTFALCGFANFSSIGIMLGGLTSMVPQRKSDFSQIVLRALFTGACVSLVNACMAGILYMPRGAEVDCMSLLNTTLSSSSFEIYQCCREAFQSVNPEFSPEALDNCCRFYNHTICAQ
Procedure: as §1, §2

hCNT2 (SLC28A2) = target: T4, hCNT2 (SLC28A2) (Homo sapiens, UniProt O43868); assay: Inhibition of [^3H]uridine uptake in yeast cells producing recombinant hCNT2; type: cell-based
T4 construct: expressed in transfected cells; host or cells: Saccharomyces cerevisiae
T4 sequence (O43868 1-658): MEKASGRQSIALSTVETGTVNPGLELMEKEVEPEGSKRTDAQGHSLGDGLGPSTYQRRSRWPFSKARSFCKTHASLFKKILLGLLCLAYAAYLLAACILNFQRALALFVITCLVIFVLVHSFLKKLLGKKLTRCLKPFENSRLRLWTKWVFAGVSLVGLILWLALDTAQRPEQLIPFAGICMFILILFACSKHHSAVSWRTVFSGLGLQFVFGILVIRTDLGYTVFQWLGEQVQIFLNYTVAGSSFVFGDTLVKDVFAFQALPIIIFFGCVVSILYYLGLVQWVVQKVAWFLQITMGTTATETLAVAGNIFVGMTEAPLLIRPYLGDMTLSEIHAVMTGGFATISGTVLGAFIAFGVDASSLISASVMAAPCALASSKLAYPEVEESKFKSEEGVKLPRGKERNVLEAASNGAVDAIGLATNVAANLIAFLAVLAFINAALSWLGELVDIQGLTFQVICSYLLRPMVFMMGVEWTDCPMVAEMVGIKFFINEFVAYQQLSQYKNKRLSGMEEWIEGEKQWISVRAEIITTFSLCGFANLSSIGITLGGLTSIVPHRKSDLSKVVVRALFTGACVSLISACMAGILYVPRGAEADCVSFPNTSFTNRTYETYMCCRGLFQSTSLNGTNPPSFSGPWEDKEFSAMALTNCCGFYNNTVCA
Procedure: as §1, §2

hCNT3 (SLC28A3) = target: T5, hCNT3 (SLC28A3) (Homo sapiens, UniProt Q9HAS3); assay: Inhibition of [^3H]uridine uptake in yeast cells producing recombinant hCNT3; type: cell-based
T5 construct: expressed in transfected cells; host or cells: Saccharomyces cerevisiae
T5 sequence (Q9HAS3 1-691): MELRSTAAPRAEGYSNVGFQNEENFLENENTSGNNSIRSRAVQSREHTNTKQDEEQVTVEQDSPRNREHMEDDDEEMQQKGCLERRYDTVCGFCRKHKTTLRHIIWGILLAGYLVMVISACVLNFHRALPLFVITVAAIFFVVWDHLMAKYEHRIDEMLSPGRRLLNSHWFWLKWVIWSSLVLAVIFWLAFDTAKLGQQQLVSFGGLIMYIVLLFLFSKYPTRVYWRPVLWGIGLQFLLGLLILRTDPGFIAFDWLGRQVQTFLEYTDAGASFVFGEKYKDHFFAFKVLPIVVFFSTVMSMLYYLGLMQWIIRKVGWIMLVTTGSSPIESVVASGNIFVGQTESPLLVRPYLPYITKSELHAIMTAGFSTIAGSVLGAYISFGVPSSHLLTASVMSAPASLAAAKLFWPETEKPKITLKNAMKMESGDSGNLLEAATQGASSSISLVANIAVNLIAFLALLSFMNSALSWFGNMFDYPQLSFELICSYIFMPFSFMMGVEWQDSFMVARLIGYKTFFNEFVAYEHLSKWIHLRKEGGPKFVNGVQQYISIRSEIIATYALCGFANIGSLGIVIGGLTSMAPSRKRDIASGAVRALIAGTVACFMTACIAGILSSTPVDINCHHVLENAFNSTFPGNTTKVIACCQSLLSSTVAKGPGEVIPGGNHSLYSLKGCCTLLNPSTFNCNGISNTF
Procedure: as §1, §2

CT26 colon carcinoma = assay: PET hypoxia imaging of CT26 colon carcinoma bearing mice; type: in vivo, BALB/c mice; settings: for tumor uptake: hypoxic CT26 tumor tissue; for tumor uptake / muscle uptake: PET; for tumor-to-muscle ratio (TMR): i.v., CT26 tumor vs. shoulder muscle, mean ± SD; for muscle uptake: normoxic muscle tissue
Procedure: The above-described CT26 mouse colon carcinoma cells were subcutaneously inoculated in the right shoulder of female BALB/c mice (1 × 10^6 cells in phosphate-buffered saline, PBS). Subsequently, the carcinomas were allowed to grow for a period of 13 days, reaching approximately 0.3 cm3. […] All animal experiments were conducted according to guidelines for the use and care of laboratory research animals under the German Animal Protection Law, and approved by local authorities (Regierungspräsidium Tübingen). […] All experiments were done using medical air as carrier gas for isoflurane anesthesia (1.5% isoflurane during PET scans, flow rate 0.4 L/min), including tracer injections, with a specialized vaporizer ([…], Louisville, KY, USA). Subsequent to the tracer injections, the animals were allowed to freely move in their home cages for an uptake period of 55 min, thus, breathing room air. […] PET scans were performed with a Siemens Inveon dedicated PET (DPET, Siemens Healthcare, Knoxville, TN, USA). PET scans were then reconstructed with a two-dimensional ordered subset expectation maximization algorithm (OSEM2D with 16 subsets and 4 iterations). Image zoom was set to 1 and matrix size to 128 × 128 yielding a final PET image spatial resolution of 0.79 × 0.79 × 0.80 mm3. PET data were manually corrected for radioactive decay of ^18F. PET image analysis was performed using the PMOD 3.2_base 64 image viewing tool (PMOD Technologies, Zürich, Switzerland). […] Finally, PET data were expressed as percent injected dose per cubic-centimeter (%ID/cc) or tumor-to-muscle ratio (TMR).

[1] = inhibition of 1 µmol/L [^3H]uridine transport, yeast, 0–3 mM test compound, mean ± SE, n = 2–3, NI = no interaction

IC50 (hENT1 (SLC29A1)): > 3 mM | IC50 hENT1 (SLC29A1) (hENT1 (SLC29A1)): no interaction | IC50 (hENT2 (SLC29A2)): > 3 mM | IC50 hENT2 (SLC29A2) (hENT2 (SLC29A2)): no interaction | IC50 (hCNT1 (SLC28A1)): 0.29 ± 0.044 mM | IC50 (hCNT2 (SLC28A2)): 0.64 ± 0.01 mM | IC50 (hCNT3 (SLC28A3)): 1.38 ± 0.1 mM
SMILES: O=[N+]([O-])c1nccn1[C@H]1O[C@H](CF)[C@@H](O)[C@@H]1O [FAZA, 1-(5′-deoxy-5′-fluoro-α-D-arabinofuranosyl)-2-nitroimidazole]

IC50 (hENT1 (SLC29A1)): > 3 mM | IC50 hENT1 (SLC29A1) (hENT1 (SLC29A1)): no interaction | IC50 (hENT2 (SLC29A2)): > 3 mM | IC50 hENT2 (SLC29A2) (hENT2 (SLC29A2)): no interaction | IC50 (hCNT1 (SLC28A1); [1]): > 3 mM | IC50 hCNT1 (SLC28A1) (hCNT1 (SLC28A1); [1]): no interaction | IC50 (hCNT2 (SLC28A2); [1]): > 3 mM | IC50 hCNT2 (SLC28A2) (hCNT2 (SLC28A2); [1]): no interaction | IC50 (hCNT3 (SLC28A3); [1]): > 3 mM | IC50 hCNT3 (SLC28A3) (hCNT3 (SLC28A3); [1]): no interaction
SMILES: O=[N+]([O-])c1nccn1C1CC(O)C(CF)O1 (stereo not drawn) [α-FAZDR]

tumor uptake (CT26 colon carcinoma; 1 h p.i.): 0.40 ± 0.07 %ID/cc | tumor-to-muscle ratio (TMR) (CT26 colon carcinoma; 1 h p.i.): 2.52 ± 0.94 | muscle uptake (CT26 colon carcinoma; 1 h p.i.): 0.17 ± 0.03 %ID/cc | muscle clearance (CT26 colon carcinoma; 2 h p.i. relative to 1 h p.i.): 58.4 ± 8.2% | tumor clearance (CT26 colon carcinoma; 2 h p.i. relative to 1 h p.i.): 56.6 ± 6.8% | tumor uptake (CT26 colon carcinoma; 2 h p.i.): 0.18 ± 0.06 %ID/cc | tumor-to-muscle ratio (TMR) (CT26 colon carcinoma; 2 h p.i.): 2.65 ± 0.87 | muscle uptake (CT26 colon carcinoma; 2 h p.i.): 0.07 ± 0.01 %ID/cc | clearance ratio for tumor relative to muscle tissue (CT26 colon carcinoma; 3 h p.i.): 0.95 ± 0.02 | muscle clearance (CT26 colon carcinoma; 3 h p.i. relative to 1 h p.i.): 75.3 ± 6.4% | tumor clearance (CT26 colon carcinoma; 3 h p.i. relative to 1 h p.i.): 71.5 ± 7.0% | tumor uptake (CT26 colon carcinoma; 3 h p.i.): 0.12 ± 0.05 %ID/cc | tumor-to-muscle ratio (TMR) (CT26 colon carcinoma; 3 h p.i.): 2.91 ± 1.01 | muscle uptake (CT26 colon carcinoma; 3 h p.i.): 0.04 ± 0.01 %ID/cc
SMILES: O=[N+]([O-])c1nccn1[C@H]1C[C@H](O)[C@@H](C[18F])O1 [β-[^18F]FAZDR, [^18F]fluoro-azomycin-β-deoxyriboside]
